According to paper PMC7177833, “2-Aminopyridine Analogs Inhibit Both Enzymes of the Glyoxylate Shunt in Pseudomonas aeruginosa” (International Journal of Molecular Sciences, 2020):
In brackets after ≈: the same amount, converted by molar mass. Like-named read-outs stand apart in the source and are kept apart here.

Experiments:
[1] = biological target: T1, MSPa (malate synthase G from P. aeruginosa) (Pseudomonas aeruginosa, UniProt Q9I636); experiment: Inhibition of purified MSPa enzymatic activity; type: biochemical; conditions: for inhibition at 75 µM: 75 µM compound, read-out: Enzyme Inhibition (%) at 75 µM MSPa
T1 construct: made in house
T1 sequence (Q9I636 whole entry): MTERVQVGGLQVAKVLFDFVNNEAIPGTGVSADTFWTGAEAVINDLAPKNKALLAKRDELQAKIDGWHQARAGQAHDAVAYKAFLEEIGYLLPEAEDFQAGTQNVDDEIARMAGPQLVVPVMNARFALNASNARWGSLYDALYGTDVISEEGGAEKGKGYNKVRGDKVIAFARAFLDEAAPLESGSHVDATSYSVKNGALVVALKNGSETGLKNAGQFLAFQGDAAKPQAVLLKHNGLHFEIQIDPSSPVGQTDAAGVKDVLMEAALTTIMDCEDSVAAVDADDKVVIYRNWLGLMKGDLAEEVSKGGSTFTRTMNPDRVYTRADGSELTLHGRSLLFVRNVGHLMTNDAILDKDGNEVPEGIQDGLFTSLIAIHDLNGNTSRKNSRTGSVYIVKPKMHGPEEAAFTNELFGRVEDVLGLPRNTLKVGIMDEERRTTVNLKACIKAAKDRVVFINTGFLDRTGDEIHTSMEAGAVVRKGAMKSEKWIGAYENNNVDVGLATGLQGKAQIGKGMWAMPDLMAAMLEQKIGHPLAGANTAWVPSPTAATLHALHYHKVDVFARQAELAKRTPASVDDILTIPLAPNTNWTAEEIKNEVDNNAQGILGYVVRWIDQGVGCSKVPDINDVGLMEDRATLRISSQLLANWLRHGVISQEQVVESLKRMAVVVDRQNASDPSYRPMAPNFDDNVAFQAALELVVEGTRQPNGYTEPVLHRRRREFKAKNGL
Experimental: (§1) The enzymatic activity of purified ICLPa and MSPa was assayed essentially as previously described. Compounds were added to the reaction mixtures (minus substrates) and incubated for 5 min at 37 °C. The enzyme concentration in the reaction mixtures was 170 nM for ICL and 25 nM for MS (based on the concentration of the monomer in each case). […] The reactions were initiated by the addition of pH-adjusted substrates, and the initial rates were recorded as A324 nm (for ICLPa) and A412 nm (for MSPa) using a Biospectrometer (Eppendorf, Stevenage, UK). Substrate turnover was calculated from the molar extinction coefficient of the assay products: Glyoxylate-phenylhydrazone (16,800/M/cm) for ICLPa and 2-nitro-5-thiobenzoic acid (14,150/M/cm) for MSPa.
(§2) All data fitting was performed with GraphPad Prism version 7.04 (GraphPad Software, Inc., La Jolla, CA, USA). The solid lines are the result of fitting the data to the equations denoted in relevant experimental sections. IC50 values were determined by a nonlinear fit using the equation for sigmoidal dose-response with variable slope. In all graphs, unless otherwise stated, the data points are the mean of experimental triplicates, and all error bars correspond to ± standard deviation.

[2] = biological target: T2, ICLPa (isocitrate lyase from P. aeruginosa) (Pseudomonas aeruginosa, UniProt Q9I0K4); experiment: Inhibition of purified ICLPa enzymatic activity; type: biochemical; conditions: for IC50: purified enzyme, 170 nM ICL
T2 construct: made in house
T2 sequence (Q9I0K4 1-531): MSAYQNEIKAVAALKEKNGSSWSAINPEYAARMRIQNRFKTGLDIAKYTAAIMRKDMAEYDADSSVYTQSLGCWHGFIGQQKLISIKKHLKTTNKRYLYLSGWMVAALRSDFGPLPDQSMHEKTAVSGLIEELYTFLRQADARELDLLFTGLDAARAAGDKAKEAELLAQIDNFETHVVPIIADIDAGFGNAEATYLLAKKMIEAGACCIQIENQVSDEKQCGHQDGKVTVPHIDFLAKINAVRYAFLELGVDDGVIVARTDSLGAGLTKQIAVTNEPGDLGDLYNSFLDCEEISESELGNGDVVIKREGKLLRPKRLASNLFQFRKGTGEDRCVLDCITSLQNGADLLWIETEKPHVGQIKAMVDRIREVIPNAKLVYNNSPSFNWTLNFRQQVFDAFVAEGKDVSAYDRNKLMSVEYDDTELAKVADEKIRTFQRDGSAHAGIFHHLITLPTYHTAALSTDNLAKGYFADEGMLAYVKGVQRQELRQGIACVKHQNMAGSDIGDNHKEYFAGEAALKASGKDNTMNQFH
Experimental: as §1, §2

P. aeruginosa PAO1 = experiment: Antibacterial growth assay (OD600, 18 h) in LB or M9-acetate; type: cell-based; conditions: Pseudomonas aeruginosa; for inhibition at 200 µM: final optical density; for MIC: PAO1, MIC = lowest concentration inhibiting >75% of growth
Experimental: Growth assays were carried out using clear, U-bottom, sterile 96-well plates (Thermo Fisher Scientific, Bishop’s Stortford, UK). P. aeruginosa PAO1 overnight cultures were diluted to a starting OD600 of 0.05 in LB medium or M9 medium supplemented with 0.5% acetate. The test compounds were added to the indicated final concentrations, and the plates were covered with gas-permeable adhesive seals (Scientific Laboratory Supplies, Nottingham, UK). Assay controls included 1% DMSO, a positive antibiotic control (ciprofloxacin, 1 µg/mL), and medium-only wells as a control for background absorbance. […]

[3] = 75 µM compound, read-out: Enzyme Inhibition (%) at 75 µM ICLPa
[4] = PAO1, LB medium, read-out: PAO1 Growth Inhibition (%) at 200 µM LB
[5] = PAO1, M9-acetate medium, read-out: PAO1 Growth Inhibition (%) at 200 µM M9ac
[6] = M9 medium with 0.5% acetate, read-out: MIC M9ac

`CC(C)(C)OC(=O)/N=C(\NC(=O)OC(C)(C)C)Nc1cc(F)ccn1` [SB026] was tested. Which IC50 [1] did it give?
The IC50 was 59.3 µM.

And the inhibition at 75 µM [1]?
Its inhibition at 75 µM is 55.1%.

What about the inhibition at 75 µM [2, 3] of the same molecule?
Its inhibition at 75 µM is 62%.

And the IC50 [2]?
The IC50 was 54.5 µM.

What about the inhibition at 200 µM (P. aeruginosa PAO1; [4]) of the same molecule?
The inhibition at 200 µM was roughly 23%.

And the inhibition at 200 µM (P. aeruginosa PAO1; [5])?
Its inhibition at 200 µM is 72%.

And the MIC (P. aeruginosa PAO1; LB medium, read-out: MIC LB)?
The MIC was greater than 200 µM.

And the MIC (P. aeruginosa PAO1; [6])?
Its MIC is 70.9 µM (≈ 25.1 µg/mL).

What does the source list for `CC(C)(C)OC(=O)/N=C(\NC(=O)OC(C)(C)C)Nc1cc(Br)ccn1` [SB001]?
IC50 [1]: > 75 µM; inhibition at 75 µM [1]: 16.2%; inhibition at 75 µM [2, 3]: 6.1%; IC50 [2]: > 75 µM; inhibition at 200 µM (P. aeruginosa PAO1; [4]): 0%; inhibition at 200 µM (P. aeruginosa PAO1; [5]): 48%; MIC (P. aeruginosa PAO1; LB medium, read-out: MIC LB): > 200 µM; MIC (P. aeruginosa PAO1; [6]): > 200 µM

For `C=C(CC(=O)O)C(=O)O` [ITA, itaconate, reference compound], which “Enzyme Inhibition (%) at 75 µM ICLPa” value ([2]; 75 µM compound) is on record?
Its value is 72.6%.

And the IC50 [2]?
The IC50 was 24.9 µM.

What about the inhibition at 75 µM ([2]; read-out: Enzyme Inhibition (%) at 75 µM ICLPa, 75 µM compound) of the same molecule?
The inhibition at 75 µM was roughly 70%.

With `COC(=O)c1ccnc(N/C(=N/C(=O)OC(C)(C)C)NC(=O)OC(C)(C)C)c1` [SB029] as the molecule, how does the IC50 [1] read?
Its IC50 is greater than 75 µM.

What about the inhibition at 75 µM [1] of the same molecule?
The inhibition at 75 µM was 0%.

What about the inhibition at 75 µM [2, 3] of the same molecule?
Its inhibition at 75 µM is 55.9%.

And the IC50 [2]?
Its IC50 is 64.7 µM.

And the inhibition at 200 µM (P. aeruginosa PAO1; [4])?
Its inhibition at 200 µM is 6%.

And the inhibition at 200 µM (P. aeruginosa PAO1; [5])?
The inhibition at 200 µM was 45%.

And the MIC (P. aeruginosa PAO1; LB medium, read-out: MIC LB)?
The MIC was greater than 200 µM.

And the MIC (P. aeruginosa PAO1; [6])?
The MIC was greater than 78.9 µM.

With `CC(C)(C)OC(=O)/N=C(\NC(=O)OC(C)(C)C)Nc1cc(C(F)(F)F)ccn1` [SB022] as the molecule, how does the IC50 [1] read?
Its IC50 is greater than 75 µM.

And the inhibition at 75 µM [1]?
Its inhibition at 75 µM is 0%.

And the inhibition at 75 µM [2, 3]?
The inhibition at 75 µM was 4.3%.

And the IC50 [2]?
The IC50 was greater than 75 µM.

What about the inhibition at 200 µM (P. aeruginosa PAO1; [4]) of the same molecule?
Its inhibition at 200 µM is 0%.

What about the inhibition at 200 µM (P. aeruginosa PAO1; [5]) of the same molecule?
Its inhibition at 200 µM is 7%.

What about the MIC (P. aeruginosa PAO1; LB medium, read-out: MIC LB) of the same molecule?
Its MIC is greater than 200 µM.

And the MIC (P. aeruginosa PAO1; [6])?
The MIC was greater than 200 µM.

For `CC(C)(C)OC(=O)/N=C(\NC(=O)OC(C)(C)C)Nc1ccnc(Cl)c1` [SB032], which IC50 [1] is on record?
The IC50 was 70.6 µM.

And the inhibition at 75 µM [1]?
The inhibition at 75 µM was 48.7%.

What about the inhibition at 75 µM [2, 3] of the same molecule?
Its inhibition at 75 µM is 43.8%.

What about the IC50 [2] of the same molecule?
The IC50 was 91.8 µM.
